Numbers after ± are expanded uncertainties.
Experiments:
[1] = xn = mol fraction of the nth substance listed; conditions: 100 kPa, Liquid; for thermal conductivity: transient hot wire
[2] = 100 kPa, Liquid; for thermal conductivity: transient hot wire

CCOP(=O)([O-])OCC.CCn1cc[n+](C)c1 [1-ethyl-3-methylimidazolium diethyl phosphate] + O
[1]
Conditions | mass density, x1 = 0.2 [kg/m3] | mass density, x1 = 0.4 [kg/m3] | mass density, x1 = 0.6 [kg/m3] | mass density, x1 = 0.8 [kg/m3] | mass density, x1 = 1 [kg/m3] | thermal conductivity, x1 = 0.2 [W/m/K] | thermal conductivity, x1 = 0.4 [W/m/K] | thermal conductivity, x1 = 0.6 [W/m/K] | thermal conductivity, x1 = 0.8 [W/m/K] | thermal conductivity, x1 = 1 [W/m/K]
303.15 K | 1133.7 ± 10 | 1137.4 ± 10 | 1139.3 ± 10 | 1143.2 ± 10 | 1144.9 ± 10 | – | – | – | – | –
313.15 K | 1126 ± 10 | 1131.3 ± 10 | 1133.3 ± 10 | 1137.2 ± 10 | 1139.2 ± 10 | 0.2341 ± 0.0094 | 0.1964 ± 0.0079 | 0.1849 ± 0.0074 | 0.1783 ± 0.0072 | 0.1745 ± 0.0071
333.15 K | 1112.4 ± 10 | 1118.3 ± 10 | 1121.1 ± 10 | 1124.4 ± 10 | 1127.2 ± 10 | – | – | – | – | –
353.15 K | 1098.8 ± 10 | 1105.7 ± 10 | 1108.9 ± 10 | 1118 ± 10 | 1115.2 ± 10 | – | – | – | – | –

CCOP(=O)([O-])OCC.CCn1cc[n+](C)c1 [1-ethyl-3-methylimidazolium diethyl phosphate]
[2]
Conditions | mass density [kg/m3] | thermal conductivity [W/m/K]
303.15 K | 1144.9 ± 10 | –
313.15 K | 1139.2 ± 10 | 0.1745 ± 0.0071
333.15 K | 1127.2 ± 10 | –
353.15 K | 1115.2 ± 10 | –

O [water]
[2]
Conditions | thermal conductivity [W/m/K]
302.39 K | 0.6187 ± 0.025
314.31 K | 0.6334 ± 0.025
333.54 K | 0.656 ± 0.026
353.53 K | 0.67 ± 0.027

— the NIST ThermoML archive (doi:10.1007/s10765-018-2359-2)
